Settings: Liquid; for mass density: Buoyancy - hydrostatic balance; for viscosity: Falling or rolling sphere viscometry

OCCOCCO [diethylene glycol]
Settings	mass density [kg/m3]	viscosity [mPa·s]
293.15 K, 98 kPa	1117.04	36.52
293.15 K, 49030 kPa	1137.67	52.72
293.15 K, 98060 kPa	1158.16	74.16
293.15 K, 147100 kPa	1171	102.6
293.15 K, 196130 kPa	1184.89	139.9
293.15 K, 245160 kPa	1196.63	187.3
298.15 K, 98 kPa	1114.02	28.36
298.15 K, 49030 kPa	1135.41	40.36
298.15 K, 98060 kPa	1155.68	56.52
298.15 K, 147100 kPa	1168.88	77.16
298.15 K, 196130 kPa	1182.6	103.8
298.15 K, 245160 kPa	1194.5	138.3
312.6 K, 98 kPa	1104.9	15.25
312.62 K, 49030 kPa	1128.43	21.04
312.63 K, 98060 kPa	1148.18	28.2
312.67 K, 147100 kPa	1162.46	37.14
312.71 K, 196130 kPa	1175.84	48.29
312.75 K, 245160 kPa	1188.18	62.07
329.28 K, 98 kPa	1093.62	8.458
329.33 K, 98060 kPa	1138.99	14.73
329.33 K, 196130 kPa	1167.96	23.82
329.33 K, 245160 kPa	1180.84	29.61
329.38 K, 49030 kPa	1119.54	11.29
329.38 K, 147100 kPa	1154.56	18.83
344.99 K, 98 kPa	1082.27	5.34
345.2 K, 49030 kPa	1110.34	7.062
345.38 K, 98060 kPa	1129.61	8.969
345.47 K, 147100 kPa	1146.46	11.23
345.61 K, 196130 kPa	1160.06	13.81
345.78 K, 245160 kPa	1173.38	16.75
349.77 K, 98 kPa	1078.67	4.809
350.06 K, 49030 kPa	1107.36	6.25
350.13 K, 147100 kPa	1144.02	9.866
350.16 K, 98060 kPa	1126.71	7.904
350.4 K, 196130 kPa	1157.71	12.04
366.77 K, 98 kPa	1065.35	3.231
367.13 K, 49030 kPa	1096.31	4.124
367.26 K, 147100 kPa	1134.7	6.331
367.3 K, 98060 kPa	1115.94	5.145
367.37 K, 196130 kPa	1149.25	7.607
367.61 K, 245160 kPa	1163.2	9.086
413.65 K, 98 kPa	1024.3	1.409
413.8 K, 49030 kPa	1061.47	1.78
413.93 K, 98060 kPa	1083.55	2.153
414.01 K, 147100 kPa	1106.4	2.554
414.09 K, 196130 kPa	1124.99	2.987
414.29 K, 245160 kPa	1140.38	3.474
463.94 K, 98060 kPa	1043.8	1.218
463.99 K, 49030 kPa	1016.46	1.002
464.05 K, 98 kPa	973.11	0.789
464.09 K, 147100 kPa	1071.5	1.432
464.2 K, 196130 kPa	1097.41	1.655
464.37 K, 245160 kPa	1114.3	1.879

Source: the NIST ThermoML archive (doi:10.1016/j.fluid.2011.11.022)
